Source: US11357783B2 (CAREGEN CO., LTD., priority 2016, dated 2022)

Tests used:
[1] = Solubility test in distilled water; assay type: physicochemical; conditions: 10 mg/ml
5α reductase = assay: Effect on 5α reductase activity: testosterone reacted with liver cell extracts, testosterone and DHT by HPLC; assay type: biochemical; conditions: 1 hour at 37° C.
Description: The reactant of putting the liver cell extracts in testosterone and reacting it for 1 hour at 37° C. is the control. After the reaction is completed, the amount of testosterone and DHT were confirmed through HPLC. The HPLC analysis was carried out under the following conditions. • C18 column • UV 240 nm • flow rate: 1 mi/minute • mobile phase: A: 0.1% Formic acid in water • B: 0.1% Formic acid in acetonitrile • gradient: 0 min B 5%˜30 min B 80%

For `CC(C)(C)NC(=O)[C@H]1CC[C@H]2[C@@H]3CC[C@H]4NC(=O)C=C[C@]4(C)[C@H]3CC[C@]12C` [finasteride, N-(1,1-dimethylethyl)-3-oxo-(5α,17β)-4-azaandrost-1-ene-17-carboxamide], the solubility in water [1] was “hardly dissolved in water”, the “concentration of DHT compared with the control” value (5α reductase) was “decreased” and the “concentration of testosterone compared with the control” value (5α reductase) was “increased”.
